The source of these data is patent US4957730A, “Antimycotic nail varnish” (Hoechst Aktiengesellschaft, priority 1985, dated 1990).

≈ marks a conversion by molar mass, not a printed value.

The test system of assay [1] is Trichophyton mentagrophytes 109 (100/25). The experiment in a line: guinea pig trichophytosis model, inhibition on the skin surface. Set-up: concentration or dose not given beside the values. To be noted: in vivo. The source says: (§1) The results of these experiments are shown in Table 1 in comparison with the efficacy of the pyridone compounds against the highly virulent skin fungus Trichophyton mentagrophytes 109 (100/25) in the in vitro series dilution test and in the guinea pig trichophytosis model.
**Percentage inhibition on the skin surface in the guinea pig
Trichophytosis model (W. Dittmar, Mykosen 18 (8), 351-361 (1975)

Assay [2] concerns T. mentagrophytes. The experiment in a line: penetration test on excised pig skin: growth inhibition in the lowest region of the horny layer. On the procedure: The test method for penetration capacity on excised skin from pigs enables the capacity to penetrate of an effective concentration of compounds horny tissue to be tested.
(§2) In the tests for the penetration capacity, the surface of shaved pieces of skin was first treated with 0.3% strength solutions of the compounds 1-8 and likewise with three similar compounds not claimed, in each case dissolved in a mixture of 1 ml of dimethyl sulfoxide and 9 ml of isopropanol, at room temperature and was washed again after 2 hours. The lowest region of the horny layer was then exposed by removing the superficial layers by peeling off with adhesive strips ten times in succession. The deep-lying horny layer now exposed was inoculated with virulent pathogens of nail mycoses (dermatophytes). Conclusions as to the level of the penetration capacity were drawn on the basis of the degree of growth inhibition found.
as §1
***Horny layer penetration: percentage growth inhibition by the substance
which has penetrated into the lowest part of the horny layer.
(§3) *Time between application of the product and stripping of the skin

The test system of assay [3] is Trichophyton mentagrophytes 109 (100/25). The experiment in a line: in vitro series dilution test (MIC). It counts as cell-based. The settings on record: T. mentagrophytes.
Source text: as §1
*Minimum inhibitory concentration (MIC) in the series dilution test

Assay [4] concerns Trichophyton mentagrophytes. Nature of the assay: penetration test on horny human skin with nail varnishes: growth inhibition in the deep horny layer. The settings on record: for growth inhibition of Trichophyton mentagrophytes in the deep lying horny layer of human skin: in words, 1 or 2 hours. Here is the method:
as §2
In further experiments, the substantially thicker horny human skin was treated by the test method described above at room temperature for 1 or 2 hours with 3% strength nail varnishes of compounds 9 and 10 and likewise with a similar compound 4, which is not claimed, in comparison with the abovementioned nail varnish containing sulbentine. The varnish base of examples 9 and 10 and of comparison 4 and 5 was prepared by mixing the following constituents:
2-Hydroxy-4-methoxybenzophenone: 0.1%
Sodium dioctyl sulfosuccinate: 1.0%
50% strength solution of a copolymer of methyl vinyl ether and monobutyl maleate in isopropyl alcohol: 30.0%
as §3

Where [5] appears, read: Table 1, pig skin, 0.3% strength solutions, washed after 2 hours, lowest part of horny layer.
The mark [6] stands for this setting: humans, 3% strength varnishes, action time 60 min.
The mark [7] stands for this setting: humans, 3% strength varnishes, action time 120 min.

One may read the MIC as the lowest concentration found to suppress growth. `Cc1cc(CCC2CCCCC2)n(O)c(=O)c1` [Example 5]: the “Inhibition (%) on skin” value in assay [1] is 88,0%. Also, the “Inhibition (%) in the horny layer” value in assay [2] (setting [5]) is given as 81,2%. The molecule also registered an MIC in assay [3] of 1.95 µg/mL (≈ 8.29 µM).

As to `Cc1cc(CC(C)CC(C)(C)C)n(O)c(=O)c1` (stereo not drawn) [Example 9], the figures for the “Inhibition (%) in the deep horny layer” value in assay [2] (2 h), in assay [4] (1 h) and in assay [4] (2 h) were 99,6%, 99,0% and 99,9%, respectively. In assay [4] (3% strength varnishes), the “growth inhibition of Trichophyton mentagrophytes in the deep lying horny layer of human skin” value (“growth inhibition” for short) is on record as “almost completely or completely inhibit the growth”.

Regarding `Cc1cc(C2CCCCC2)n(O)c(=O)c1` [Example 10], the figures for the “Inhibition (%) in the deep horny layer” value in assay [2] (2 h), in assay [4] (setting [6]) and in assay [4] (setting [7]) were 98,0%, 100,0% and 100,0%, respectively. Moreover, in assay [4] (3% strength varnishes), the “growth inhibition” value is “almost completely or completely inhibit the growth”.

On to `Cc1ccc(Cc2cc(C)c(C)c(=O)n2O)c(C)c1` [Example 7], for which the “Inhibition (%) on skin” value in assay [1] is given as 88,8%. In assay [2] (setting [5]), the “Inhibition (%) in the horny layer” value is 80,0%. The molecule further displayed an MIC in assay [3] of 1.95 µg/mL (≈ 7.58 µM).

Turning to `Cc1cc(CCc2ccccc2)n(O)c(=O)c1` [Example 8], the “Inhibition (%) on skin” value in assay [1] is listed as 88,0%. Besides, the “Inhibition (%) in the horny layer” value in assay [2] (setting [5]) is given as 81,9%. Further, in assay [3], it took 1.95 µg/mL (≈ 8.5 µM) to inhibit growth (MIC).

Regarding `Cc1cc(CC(C)CC(C)(C)C)n(O)c(=O)c1` (stereo not drawn) [Example 3], in assay [1], the “Inhibition (%) on skin” value is 91,9%. In assay [2] (setting [5]), the “Inhibition (%) in the horny layer” value is on record as 99,6%. Besides, in assay [3], the MIC was found to be 1.95 µg/mL (≈ 8.22 µM).

As to `CCCCCCCCCCCc1cc(C)cc(=O)n1O` [Comparison 2, reference compound], in assay [1], the “Inhibition (%) on skin” value was 100,0%. For the same molecule, the “Inhibition (%) in the deep horny layer” value in assay [2] (2 h) is on record as 9,8%; in assay [4] (setting [6]) it was 51,4%; in assay [4] (setting [7]), 49,4%. Moreover, in assay [2] (setting [5]), the “Inhibition (%) in the horny layer” value is 9,8%. For the same molecule, inhibition of growth in assay [3] (MIC) required 3.9 µg/mL (≈ 14 µM). The “growth inhibition” value in assay [4] (3% strength varnishes) is recorded as “only an inadequate inhibiting effect”.

In the case of `CCCCC(CC)c1cc(C)cc(=O)n1O` (stereo not drawn) [Example 2], the “Inhibition (%) on skin” value in assay [1] is recorded as 85,6%. In assay [2] (2 h), the “Inhibition (%) in the horny layer” value is 85,8%. For the same molecule, the minimal inhibitory concentration (MIC) in assay [3] was 1.95 µg/mL (≈ 8.73 µM).

Turning to `Cc1cc(C2CCCCC2)n(O)c(=O)c1` [Example 4], the “Inhibition (%) on skin” value in assay [1] was 88,0%. Besides, the “Inhibition (%) in the horny layer” value in assay [2] (setting [5]) is recorded as 98,0%. This molecule also displayed an MIC in assay [3] of 1.95 µg/mL (≈ 9.41 µM).

Regarding `Cc1cc(CCCCc2ccccc2)n(O)c(=O)c1` [Comparison 3, reference compound], in assay [1], the “Inhibition (%) on skin” value is 88,0%. The “Inhibition (%) in the horny layer” value in assay [2] (setting [5]) is reported as 24,2%. In assay [3], this molecule showed an MIC of 3.9 µg/mL (≈ 15.2 µM).

For `Cc1cc(C(C)C)n(O)c(=O)c1` [Comparison 1, reference compound], the “Inhibition (%) on skin” value in assay [1] is 75,0%. In assay [2] (setting [5]), the “Inhibition (%) in the horny layer” value is on record as 35,7%. Also, the MIC in assay [3] amounted to 1.95 µg/mL (≈ 11.7 µM).

Take `Cc1cc(C2CC3CCC2C3)n(O)c(=O)c1` (stereo not drawn) [Example 6]: the “Inhibition (%) on skin” value in assay [1] was 88,0%. Moreover, the “Inhibition (%) in the horny layer” value in assay [2] (setting [5]) is on record as 79,9%. The same molecule had a minimal inhibitory concentration (MIC) in assay [3] of 1.95 µg/mL (≈ 8.89 µM).

Take `CCCCCCCc1cc(C)cc(=O)n1O` [Example 1]: the “Inhibition (%) on skin” value in assay [1] was 89,4%. Besides, the “Inhibition (%) in the horny layer” value in assay [2] (setting [5]) is 97,0%. For the same molecule, the lowest concentration to inhibit growth in assay [3] (MIC) was 1.95 µg/mL (≈ 8.73 µM).
